Counter-ions that a name gives are not always drawn. Like-named read-outs stand apart in the source and are kept apart here.
What was measured:
PDK1 = PDK1 (Homo sapiens (Human), UniProt O15530); assay: PDK1 kinase assay (coupled PDK1/AKT/FAM-crosstide assay, IMAP fluorescence polarization); type: biochemical
How it was run: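 PDK1 activity is measured indirectly through activation of a PIFtide-fused AKT2 construct that phosphorylates FAM-crosstide (100 nM). The reaction uses 0.75 nM PDK1, 40 μM ATP, 30 min, 25° C, with IMAP polarization detection.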

[1] = system: phospho-akt (Thr308) in PC-3 cells; assay: Inhibition of phospho-akt (Thr308) in PC-3 cells, MSD phospho-akt 308 ELISA kit; type: cell-based; details: Homo sapiens, 2 hours, no serum, read-out: EC50
How it was run: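 PC-3 cells (15,000/well, overnight in 10% FBS medium) treated 2 h with three-fold diluted compounds in serum-free medium; DMSO high and 5 μM wortmannin low controls. Lysates captured on BSA-blocked MSD plates overnight at 4 °C, then 1 h antibody detection at RT; phospho-Akt Thr308 read by MSD electrochemiluminescence.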

[2] = inhibition of P308 Akt in PC-3 cells using MSD
[3] = inhibition of phospo-PDK1 in vitro
[4] = PC-3, 2 h, inhibition of P308 Akt in PC-3 cells, MSD
[5] = inhibition of P308 Akt in PC-3 cells, MSD

Sequence of PDK1 (O15530 51-359): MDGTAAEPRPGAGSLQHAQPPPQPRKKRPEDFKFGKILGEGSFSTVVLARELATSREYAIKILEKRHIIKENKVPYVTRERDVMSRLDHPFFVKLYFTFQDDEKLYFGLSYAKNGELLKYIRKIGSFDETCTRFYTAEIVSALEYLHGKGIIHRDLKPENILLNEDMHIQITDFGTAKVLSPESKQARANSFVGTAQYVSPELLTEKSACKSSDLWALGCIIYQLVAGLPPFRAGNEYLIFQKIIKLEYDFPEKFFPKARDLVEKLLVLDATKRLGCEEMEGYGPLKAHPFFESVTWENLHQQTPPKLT

Row | Compound | IC50 (PDK1; inhibition of PDK1 in vitro) [nM] | EC50 [1, 2] [nM] | IC50 (PDK1; [3]) [nM] | EC50 [1, 5] [nM] | also measured
1 | C[C@H](NC(=O)c1nc(C#N)cnc1N[C@H](C)c1ccc(-c2cnc3[nH]nc(N)c3n2)cc1)c1ccc(F)c(F)c1 [Example 411, 3-{(R)-1-[4-(3-Amino-1H-pyrazolo[3,4-b]pyrazin-5-yl)-phenyl]-ethylamino}-6-cyano-pyrazine-2-carboxylic acid [(S)-1-(3,4-difluoro-phenyl)-ethyl]-amide] | < 100 | < 1000 | – | – | –
2 | Nc1ncc(-c2ccc(CNc3ncc(C(F)(F)F)cc3C(=O)Nc3ccc(F)cc3)cc2)nc1CC1CCNC1 (centres unmarked) [Example 186, 2-[4-(5-Amino-6-pyrrolidin-3-ylmethyl-pyrazin-2-yl)-benzylamino]-N-(4-fluoro-phenyl)-5-trifluoromethyl-nicotinamide] | < 100 | < 1000 | – | – | –
3 | CN(C)CCNC(=O)c1cnc(NCc2ccc(-c3ccc4ncnc(N)c4c3)s2)c(C(=O)NCc2ccc(F)c(F)c2)c1 [Example 7.24.2, 2-({[5-(4-aminoquinazolin-6-yl)thiophen-2-yl]methyl}amino)-N^3-(3,4-difluorobenzyl)-N^5-[2-(dimethylamino)ethyl] pyridine-3,5-dicarboxamide] | – | – | 100 to 1000 | – | EC50 [1, 4]: 1000 to 10000 nM
4 | CCS(=O)(=O)Nc1cnc(NCc2ccc(-c3ccc4ncnc(N)c4c3)s2)c(C(=O)NCc2ccc(F)c(F)c2)c1 [Example 8.6.2, 2-({[5-(4-aminoquinazolin-6-yl)thiophen-2-yl]methyl}amino)-N-(3,4-difluorobenzyl)-5-[(ethylsulfonyl)amino] pyridine-3-carboxamide] | – | – | 100 to 1000 | – | EC50 [1, 4]: < 1000 nM
5 | CCNS(=O)(=O)c1cnc(NCc2ccc(-c3ccc4ncnc(N)c4c3)s2)c(C(=O)NCc2ccc(F)c(F)c2)c1 [Example 8.7.11, 2-({[5-(4-aminoquinazolin-6-yl)thiophen-2-yl]methyl}amino)-N-(3,4-difluorobenzyl)-5-(ethylsulfamoyl)pyridine-3-carboxamide] | – | – | 100 to 1000 | < 1000 | –
6 | C[C@H](NC(=O)c1cc(C#N)cnc1NCc1ccc(-c2cnc(N)c(O[C@@H]3CCNC3)n2)cc1)c1ccc(F)cc1 [Example 160, 2-{4-[5-Amino-6-((R)-pyrrolidin-3-yloxy)-pyrazin-2-yl]-benzylamino}-5-cyano-N-[(S)-1-(4-fluoro-phenyl)-ethyl]-nicotinamide] | < 100 | < 1000 | – | – | –
7 | N#Cc1cnc(NCc2ccc(-c3cnc4[nH]nc(N)c4c3)cc2)c(C(=O)Nc2ccc(Cl)cc2)n1 [Example 426, 3-(4-(3-amino-1H-pyrazolo[3,4-b]pyridin-5-yl)benzylamino)-N-(4-chlorophenyl)-6-cyanopyrazine-2-carboxamide] | < 100 | < 1000 | – | – | –
8 | O=C(NCc1ccc(F)c(F)c1)c1ccccc1NCc1cccc(-c2c[nH]c3ncccc23)c1 [Example 1.20, 2-(3-(1H-pyrrolo[2,3-b]pyridin-3-yl)benzylamino)-N-(3,4-difluorobenzyl)benzamide] | – | – | < 100 | 1000 to 10000 | –
9 | CN(C)CCCNC(=O)c1cnc(NCc2ccc(-c3ccc4ncnc(N)c4c3)s2)c(C(=O)NCc2ccc(F)c(F)c2)c1 [Example 7.24.5, 2-({[5-(4-aminoquinazolin-6-yl)thiophen-2-yl]methyl}amino)-N^3-(3,4-difluorobenzyl)-N^5-[3-(dimethylamino)propyl] pyridine-3,5-dicarboxamide] | – | – | 100 to 1000 | > 10000 | –
10 | O=C(NCc1ccc(C(F)(F)F)cc1)c1cccnc1NCc1ccc(-c2c[nH]c3ncccc23)s1 [Example 1.18] | – | – | 1000 to 5000 | > 10000 | –
11 | CNC(=O)c1cc(S(=O)(=O)N2CCCCC2)cnc1NCc1ccc(-c2ccc3ncnc(N)c3c2)s1 [Example 8.6.19] | – | – | > 5000 | > 10000 | –
12 | C[C@H](NC(=O)c1cc(C#N)cnc1NCC#Cc1cnc2[nH]ncc2c1)c1ccc(F)cc1 [Example 249, (S)-2-(3-(1H-pyrazolo[3,4-b]pyridin-5-yl)prop-2-ynylamino)-5-cyano-N-(1-(4-fluorophenyl)ethyl)nicotinamide] | > 5000 | > 10000 | – | – | –
13 | C[C@H](NC(=O)c1cc(C#N)cnc1NCc1ccc(-c2cnc(N)c(O[C@H]3CCC[C@@H]3N)n2)cc1)c1ccc(F)cc1 [Example 168, 2-{4-[5-Amino-6-((1S,2S)-2-amino-cyclopentyloxy)-pyrazin-2-yl]-benzylamino}-5-cyano-N-[(S)-1-(4-fluoro-phenyl)-ethyl]-nicotinamide] | < 100 | 1000 to 10000 | – | – | –
14 | C[C@H](NC(=O)c1cc(C#N)cnc1NCc1ccc(-c2cnc(N)c(CCCN)n2)nc1)c1ccc(F)cc1 [Example 74, 2-({6-[5-Amino-6-(3-amino-propyl)-pyrazin-2-yl]-pyridin-3-ylmethyl}-amino)-5-cyano-N-[(S)-1-(4-fluoro-phenyl)-ethyl]-nicotinamide] | 100 to 1000 | – | – | – | EC50 ([1]; PC-3, 2 h, inhibition of P308 Akt in PC-3 cells using MSD): 1000 to 10000 nM
15 | Nc1ncnc2ccc(-c3ccc(CNc4ncc(S(=O)(=O)NCc5cccnc5)cc4C(=O)NCc4ccc(F)c(F)c4)s3)cc12 [Example 8.7.13, 2-(((5-(4-aminoquinazolin-6-yl)thiophen-2-yl)methyl)amino)-N-(3,4-difluorobenzyl)-5-(N-(pyridin-3-ylmethyl)sulfamoyl)nicotinamide] | – | – | 100 to 1000 | 1000 to 10000 | –
16 | NC(=O)c1cnc(NCc2ccc(-c3ccc4ncnc(N)c4c3)s2)c(C(=O)NCc2ccc(F)c(F)c2)c1 [Ex. 7.24.1, 2-({[5-(4-aminoquinazolin-6-yl)thiophen-2-yl]methyl}amino)-N˜3˜-(3,4-difluorobenzyl)pyridine-3,5-dicarboxamide] | – | – | < 100 | < 1000 | –
17 | N#CCc1n[nH]c2ncc(-c3ccc(CNc4ncc(C(F)(F)F)cc4C(=O)Nc4ccc(F)cc4)cc3)cc12 [Example 157, 2-(4-(3-(cyanomethyl)-1H-pyrazolo[3,4-b]pyridin-5-yl)benzylamino)-N-(4-fluorophenyl)-5-(trifluoro-methyl)nicotinamide] | < 100 | < 1000 | – | – | –
18 | COCCn1cc(-c2ccc(CNc3ncc(C(F)(F)F)cc3C(=O)Nc3ccc(F)cc3)cc2)c2c(N)ncnc21 [Example 431] | < 100 | 1000 to 10000 | – | – | –
19 | Nc1ncc(-c2ccc(CNc3ncc(C(F)(F)F)cc3C(=O)Nc3ccc(F)cc3)cc2)nc1N1CCC[C@H](N)C1 [Example 196] | < 100 | < 1000 | – | – | –
20 | Nc1ncnc2ccc(-c3ccc(CNc4nc5ccccc5cc4C(=O)NCc4ccc(F)c(F)c4)s3)cc12 [Ex. 8.14.1, 2-({[5-(4-aminoquinazolin-6-yl)thiophen-2-yl]methyl}amino)-N-(3,4-difluorobenzyl) quinoline-3-carboxamide] | – | – | < 100 | < 1000 | –
21 | C[C@H](NC(=O)c1cc(C#N)cnc1NCc1ccc(-c2cnc3[nH]c(=O)[nH]c3c2)cc1)c1ccc(F)c(F)c1 [Example 361, (S)-5-cyano-N-(1-(3,4-difluorophenyl)ethyl)-2-(4-(2-oxo-2,3-dihydro-1H-imidazo[4,5-b]pyridin-6-yl)benzylamino) nicotinamide] | < 100 | < 1000 | – | – | –

Continued, in another order:

Row | IC50 (PDK1; inhibition of PDK1 in vitro) [nM] | EC50 [1, 2] [nM] | IC50 (PDK1; [3]) [nM] | EC50 [1, 5] [nM] | Compound | also measured
22 | – | – | > 5000 | > 10000 | C[C@@H](c1ccc(F)cc1)n1cnc2ccnc(NCc3ccc(-c4cc5c(N)ncnc5cn4)s3)c2c1=O [Example 7.12, 5-({[5-(4-aminopyrido [3,4-d]pyrimidin-6-yl)thiophen-2-yl]methyl}amino)-3-[(1S)-1-(4-fluorophenyl)ethyl] pyrido[4,3-d]pyrimidin-4(3H)-one] | –
23 | – | – | 100 to 1000 | > 10000 | C[C@H](NC(=O)c1cn(-c2ccccc2)nc1NCc1ccc(-c2ccc3ncnc(N)c3c2)s1)c1ccc(F)c(F)c1 [Ex. 11.2] | –
24 | – | – | 100 to 1000 | < 1000 | C[C@H](NC(=O)c1cccnc1NCc1ccc(-c2c[nH]c3ncnc(N)c23)s1)c1ccc(F)cc1 [Example 2.20, (S)-2-(((5-(4-amino-7H-pyrrolo[2,3-d]pyrimidin-5-yl)thiophen-2-yl)methyl)amino)-N-(1-(4-fluorophenyl)ethyl)nicotinamide] | –
25 | – | – | 100 to 1000 | > 10000 | Nc1ncnc2ccc(-c3ccc(CNc4ncccc4C(=O)Nc4ccc(Cl)c(F)c4)s3)cc12 [Example 3.55, 2-({[5-(4-aminoquinazolin-6-yl)thiophen-2-yl]methyl}amino)-N-(4-chloro-3-fluorophenyl) pyridine-3-carboxamide (TFA salt)] | –
26 | – | – | 100 to 1000 | 1000 to 10000 | CN(Cc1ccc(F)c(F)c1)C(=O)c1nccnc1NCc1ccc(-c2ccc3ncnc(N)c3c2)s1 [Example 3.84, 3-({[5-(4-aminoquinazolin-6-yl)thiophen-2-yl]methyl}amino)-N-(3,4-difluorobenzyl)-N-methylpyrazine-2-carboxamide (TFA salt)] | –
27 | – | – | < 100 | 1000 to 10000 | C[C@H](NC(=O)c1cn(C)nc1NCc1ccc(-c2ccc3ncnc(N)c3c2)s1)c1ccc(F)cc1 [Example 11.5, 3-({[5-(4-aminoquinazolin-6-yl)thiophen-2-yl]methyl}amino)-N-[(1S)-1-(4-fluorophenyl)ethyl]-1-methyl-1H-pyrazole-4-carboxamide] | –
28 | – | – | 100 to 1000 | 1000 to 10000 | C=C1c2ccnc(NCc3ccc(-c4ccc5ncnc(N)c5c4)s3)c2C(=O)N1Cc1ccc(F)c(F)c1 [Ex. 7.20] | –

Reference: US10030016B2 (Sunesis Pharmaceuticals, Inc., priority 2009, dated 2018)
